Assay results: patent publication US8940774B2, “Tris-Quaternary Ammonium Salts and Methods for Modulating Neuronal Nicotinic Acetylcholine Receptors” (University of Kentucky Research Foundation, priority 2005, dated 2015)

Columns and labels:
[1] = biological target: T1, Rat Striatal Nicotinic Receptors (Rattus norvegicus, UniProt P09483+P12390); assay: Inhibition of [3H]Nicotine (NIC) binding assay, rat striatal membranes; details: % inhibition at 100 nM concentration of analog, 3 nM [3H]NIC
T1 construct: from tissue; host or cells: rat striatal membranes
T1 sequence (P09483 31-630): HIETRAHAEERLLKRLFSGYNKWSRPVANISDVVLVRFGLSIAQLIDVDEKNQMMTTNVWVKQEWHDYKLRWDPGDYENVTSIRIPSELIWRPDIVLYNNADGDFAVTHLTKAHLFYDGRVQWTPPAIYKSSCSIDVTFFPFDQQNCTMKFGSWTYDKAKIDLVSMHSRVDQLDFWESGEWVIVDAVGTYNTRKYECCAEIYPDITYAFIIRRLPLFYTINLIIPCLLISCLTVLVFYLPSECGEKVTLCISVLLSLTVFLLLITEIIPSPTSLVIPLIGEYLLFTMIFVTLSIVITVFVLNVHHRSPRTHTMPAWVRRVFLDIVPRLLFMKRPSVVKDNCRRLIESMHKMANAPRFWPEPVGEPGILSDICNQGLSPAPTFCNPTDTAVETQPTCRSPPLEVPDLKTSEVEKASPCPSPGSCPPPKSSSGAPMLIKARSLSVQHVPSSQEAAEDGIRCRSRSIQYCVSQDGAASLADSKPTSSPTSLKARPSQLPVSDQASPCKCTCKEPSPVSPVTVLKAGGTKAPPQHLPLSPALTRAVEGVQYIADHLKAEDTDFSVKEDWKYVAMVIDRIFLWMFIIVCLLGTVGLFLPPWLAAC
T1 sequence (P12390 25-500): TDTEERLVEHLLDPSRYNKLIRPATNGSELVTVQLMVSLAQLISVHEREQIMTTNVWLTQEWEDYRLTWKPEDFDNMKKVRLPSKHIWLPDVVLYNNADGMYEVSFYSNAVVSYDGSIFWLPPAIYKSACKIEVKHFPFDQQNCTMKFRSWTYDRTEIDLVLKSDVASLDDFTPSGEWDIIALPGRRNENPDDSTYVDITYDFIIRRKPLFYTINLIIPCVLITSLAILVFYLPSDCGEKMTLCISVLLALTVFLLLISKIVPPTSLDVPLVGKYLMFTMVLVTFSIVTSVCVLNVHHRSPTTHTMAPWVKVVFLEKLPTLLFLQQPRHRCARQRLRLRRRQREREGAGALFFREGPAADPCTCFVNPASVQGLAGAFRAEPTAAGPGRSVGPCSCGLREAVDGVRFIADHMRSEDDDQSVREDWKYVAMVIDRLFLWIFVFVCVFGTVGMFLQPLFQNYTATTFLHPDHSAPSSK
Experimental: Striata from two rats were dissected, pooled, and homogenized with a Tekmar polytron in 10 vol of ice-cold modified Krebs-HEPES buffer (20 mM HEPES, 118 mM NaCl, 4.8 mM, KCl, 2.5 mM CaCl2, 1.2 mM MgSO4, adjusted to pH 7.5). The homogenates were incubated at 37° C. for 5 minutes and centrifuged at 15,000 g for 20 minutes. The pellet was resuspended in 10 volumes of ice-cold MilliQ water, incubated for 5 minutes at 37° C., and centrifuged at 15,000 g for 20 minutes. The second pellet was then resuspended in 10 volumes of fresh ice-cold 10% Krebs-HEPES buffer, incubated at 37° C., and centrifuged at 15,000 g for 20 minutes. The latter sequence of resuspension, incubation and centrifugation was repeated. The pellet was frozen under fresh 10% Krebs-HEPES buffer and stored at −40° C. until assay. Upon assay, the pellet was resuspended in Krebs-HEPES buffer, incubated at 37° C. for 5 minutes, and centrifuged at 15,000 g for 20 minutes. The final pellet was resuspended in 3.6 mL ice-cold MilliQ water which provided for approximately 200 μg protein per 100 μL aliquot. Competition assays were performed in duplicate in a final volume of 200 μL Krebs-HEPES buffer containing […] Tris buffer (pH 7.5 at 4° C.). Reactions were initiated by addition of 100 μL of membrane suspension to 3 nM [^3H]NIC (50 μL) and one of at least nine concentrations of analog (50 μL). After a 90 minute incubation at 4° C., reactions were terminated by dilution of the samples with 3 mL of ice-cold Krebs-HEPES buffer followed immediately by filtration through Whatman GF/B glass fiber filters (presoaked in 0.5% polyethyleneimine) using a Brandel Cell Harvester. Filters were rinsed three times with 3 mL of ice-cold Krebs-HEPES buffer, transferred to scintillation vials, and 5 mL scintillation cocktail (Research Products international Corp., Mt. Prospect, Ill.) added. Nonspecific binding determined in triplicate was defined as binding in the presence of 10 μM NIC. Binding parameters were determined using the weighted, least squares non-linear regression. The tris-quaternary ammonium salts were evaluated for their ability to displace [^3H]NIC binding from rat striatal membranes.
Data are % inhibition at 100 nM concentration of analog for at least 1-3 independent experiments. Specific binding in the [^3H]NIC binding assay is calculated at the difference between the total binding of [^3H]NIC and nonspecific binding in the presence of 10 μM cold nicotine. Specific binding for the [^3H]MLA binding assay is calculated as the difference between the total binding of 2.5 nM [^3H]MLA to the receptors alone and its nonspecific binding in the presence of 1 μM cold MLA. Analog-induced inhibition of nicotine-evoked [^3H]DA release is calculated as a percent of that in the absence of analog.

[2] = biological target: T2, α7 nicotinic receptor subtype expressed in Xenopus oocytes (Rattus norvegicus, UniProt Q05941); assay: Inhibition of ACh evoked current through nicotinic receptors expressed in Xenopus oocytes (α7); type: cell-based; details: co-application with acetylcholine; compared with α4β2, α3β2, α3β4; FIGS. 1-3
T2 construct: expressed in transfected cells; host or cells: Xenopus laevis oocytes injected with subunit cRNA
T2 sequence (Q05941 23-502): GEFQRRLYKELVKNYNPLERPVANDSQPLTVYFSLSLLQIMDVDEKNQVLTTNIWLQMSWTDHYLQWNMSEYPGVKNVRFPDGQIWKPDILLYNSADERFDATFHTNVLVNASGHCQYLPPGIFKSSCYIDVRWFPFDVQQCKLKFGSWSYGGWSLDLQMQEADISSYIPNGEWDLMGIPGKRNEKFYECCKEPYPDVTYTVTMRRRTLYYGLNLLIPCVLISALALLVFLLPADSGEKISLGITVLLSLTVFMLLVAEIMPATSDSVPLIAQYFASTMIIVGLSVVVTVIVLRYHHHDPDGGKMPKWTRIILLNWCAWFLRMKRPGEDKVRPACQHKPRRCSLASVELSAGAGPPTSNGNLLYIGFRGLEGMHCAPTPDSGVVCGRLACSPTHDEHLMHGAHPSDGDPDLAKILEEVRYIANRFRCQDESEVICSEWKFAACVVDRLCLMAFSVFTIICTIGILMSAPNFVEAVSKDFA
Experimental: Rat nicotinic receptor cDNAs clones were linearized and purified, and RNA transcripts were prepared in vitro using the appropriate mMessage mMachine kit. Mature (>9 cm) female Xenopus laevis African toads (Nasco, Ft. Atkinson, Wis.), housed in the Division of Lab Animal Resources at the University of Florida were used as a source of oocytes. Prior to surgery, frogs were anesthetized by placing the animal in a 1.5 g/L solution of MS222 for 30 minutes. Oocytes were removed from an incision made in the abdomen. In order to remove the follicular cell layer, harvested oocytes were treated with 1.25 mg/mL collagenase for 2 hours at room temperature in calcium-free Barth's solution (88 mM NaCl, 1 mM KCl, 2.38 mM NaHCO3, 0.82 mM MgSO4, 15 mM HEPES, pH 7.6, 0.1 mg/mL gentamicin sulfate). Subsequently, stage 5 oocytes were isolated and injected with 5-20 ng in 50 nL each of the appropriate subunit cRNAs. Recordings were made 2 to 15 days after injection.
Electrophysiology experiments were conducted using OpusXpress 6000A (Axon instruments, Union City, Calif.), or manual oocyte two-electrode voltage-clamp systems as previously reported (Stokes et al., 2004). […]
(§1) Each oocyte received two initial control applications of ACh, then a nicotine or analog application, and then a follow-up control application of ACh. […] Responses to each nicotine or analog application were calculated relative to the preceding ACh control responses in order to normalize the data, compensating for the varying levels of channel expression among the oocytes. […] Responses for α7 receptors were calculated as net charge (Papke et al., 2002). For subtypes other than α7, responses were calculated from the peak current amplitudes. Means and standard errors (SEM) were calculated from the normalized responses of at least four oocytes for each drug concentration. […]
(§2) For concentration-response relations, data derived from net-charge analyses were plotted using Kaleidagraph 3.0.2 (Abelbeck Software; Reading, Pa.) and curves were generated from the Hill equation […]

[3] = biological target: T3, α3β4 nicotinic receptor subtype expressed in Xenopus oocytes (Rattus norvegicus, UniProt P04757+P12392); assay: Inhibition of ACh evoked current through nicotinic receptors expressed in Xenopus oocytes (α3β4); type: cell-based; details: co-application with acetylcholine; FIG. 2
T3 construct: expressed in transfected cells; host or cells: Xenopus laevis oocytes injected with subunit cRNAs
T3 sequence (P12392 21-495): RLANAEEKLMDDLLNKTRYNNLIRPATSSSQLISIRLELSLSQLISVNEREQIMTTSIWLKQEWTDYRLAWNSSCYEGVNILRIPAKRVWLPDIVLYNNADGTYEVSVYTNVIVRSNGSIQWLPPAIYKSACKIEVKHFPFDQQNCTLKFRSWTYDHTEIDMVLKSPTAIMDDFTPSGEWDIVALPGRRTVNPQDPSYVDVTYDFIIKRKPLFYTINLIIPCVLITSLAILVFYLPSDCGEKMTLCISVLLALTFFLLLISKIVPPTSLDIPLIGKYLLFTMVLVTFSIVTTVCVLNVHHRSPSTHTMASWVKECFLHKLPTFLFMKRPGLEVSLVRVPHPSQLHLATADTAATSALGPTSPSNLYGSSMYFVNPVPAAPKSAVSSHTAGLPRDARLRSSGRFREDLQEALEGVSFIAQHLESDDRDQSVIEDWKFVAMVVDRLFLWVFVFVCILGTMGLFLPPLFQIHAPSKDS
T3 sequence (P04757 26-499): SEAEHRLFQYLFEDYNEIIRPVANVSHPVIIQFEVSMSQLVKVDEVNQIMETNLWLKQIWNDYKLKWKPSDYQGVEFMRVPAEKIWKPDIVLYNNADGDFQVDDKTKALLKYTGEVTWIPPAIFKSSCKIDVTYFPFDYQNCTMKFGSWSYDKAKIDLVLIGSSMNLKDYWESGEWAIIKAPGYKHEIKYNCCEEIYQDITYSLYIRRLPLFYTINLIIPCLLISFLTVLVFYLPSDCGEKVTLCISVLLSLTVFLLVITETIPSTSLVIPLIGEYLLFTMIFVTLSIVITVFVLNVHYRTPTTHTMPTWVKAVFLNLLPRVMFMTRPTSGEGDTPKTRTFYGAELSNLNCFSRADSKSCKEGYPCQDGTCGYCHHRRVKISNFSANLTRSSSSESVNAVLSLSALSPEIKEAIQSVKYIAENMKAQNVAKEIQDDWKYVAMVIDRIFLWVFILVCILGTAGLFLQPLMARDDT
Experimental: Rat nicotinic receptor cDNAs clones were linearized and purified, and RNA transcripts were prepared in vitro using the appropriate mMessage mMachine kit. Mature (>9 cm) female Xenopus laevis African toads (Nasco, Ft. Atkinson, Wis.), housed in the Division of Lab Animal Resources at the University of Florida were used as a source of oocytes. Prior to surgery, frogs were anesthetized by placing the animal in a 1.5 g/L solution of MS222 for 30 minutes. Oocytes were removed from an incision made in the abdomen. […]
as §1, §2

SMILES | inhibition at 0.1 µM [1] | inhibition of ACh response at α7 nicotinic receptor subtype (concentration-response, in words) [2] | inhibition of ACh response at α3β4 nicotinic receptor subtype (in words) [3]
CCCCc1ccc[n+](CCCC#Cc2cc(C#CCCC[n+]3cccc(CCCC)c3)cc(C#CCCC[n+]3cccc(CCCC)c3)c2)c1 [GZ551A, 1,3,5-tris-[5-(3-butyl-pyridinium)-pent-1-ynyl]-benzene tribromide] | 6.8 ± 2% | potent and selective inhibitor | 
CN1CCC[C@H]1c1ccc[n+](CCCC#Cc2cc(C#CCCC[n+]3cccc([C@@H]4CCCN4C)c3)cc(C#CCCC[n+]3cccc([C@@H]4CCCN4C)c3)c2)c1 [GZ551B, 1,3,5-tris-{5-[3-(1-methyl-2-S-pyrrolidinyl)pyridinium]-pent-1-ynyl}-benzene tribromide] | 44 ± 3.1% | most potent as an inhibitor of the α7 nicotinic receptor subtype, but was not selective | potently inhibited
CN1CCC[C@H]1c1ccc[n+](CCCCCc2cc(CCCCC[n+]3cccc([C@@H]4CCCN4C)c3)cc(CCCCC[n+]3cccc([C@@H]4CCCN4C)c3)c2)c1 [GZ558C, 1,3,5-tris-{5-[3-(1-methyl-2-S-pyrrolidinyl)pyridinium]-pentyl}-benzene tribromide] | 81 ± 2.3% | potent and selective inhibitor | 
